Assay results published in patent publication US8008303B2, “Biphenyl derivatives and their use in treating hepatitis C” (AstraZeneca AB, priority 2005, dated 2011).
Read-outs that look alike come from different tables or passages of the source.

Columns and labels:
[1] = tested on: HCV replicon cells Huh 9B; assay: HCV replicon assay (luciferase readout); assay type: cell-based
How it was run: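 Compounds, made up at twice final strength (final DMSO 1%), were added to subgenomic replicon cells one day after plating. Incubation then ran 72 h at 37 °C, 5% CO2, without G418. Replication was quantified as firefly luciferase luminescence in lysed cells, with cytotoxicity assessed on a duplicate clear plate.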

[2] = tested on: HCV replicon cells Huh 9B; assay type: cell-based
[3] = Hepatitis C virus, 72 h, concentration reducing replicon level (luciferase activity) by 50% vs untreated cell control, 72 h incubation
[4] = concentration reducing total cell area by 50% relative to DMSO controls, methylene blue, absorbance 620 nm, 72 h incubation

SMILES | IC50 [1] | TD50 [2] | IC50 [1, 3] | TD50 [2, 4]
CC(=O)Nc1cccc(NC(=O)c2ccc(-c3cc(C(=O)Nc4ccc(N5CCOCC5)cc4)ccc3C)cc2)c1 [Example 61, 6-Methyl-biphenyl-3,4′-dicarboxylic acid 4′-[(3-acetylamino-phenyl)-amide] 3-[(4-morpholin-4-yl-phenyl)-amide]] | 1000 to 5000 nM | ** (key: * < 50 μM; ** > 50 μM) | – | –
COc1cccc(NC(=O)c2cccc(-c3ccc(C(=O)Nc4ccc(N5CCOCC5)cc4)cc3C)c2)c1 [Example 62, 2′-Methyl-biphenyl-3,4′-dicarboxylic acid 3-[(3-methoxy-phenyl)-amide] 4′-[(4-morpholin-4-yl-phenyl)-amide]] | < 1000 nM | * (key: * < 50 μM; ** > 50 μM) | – | –
Cc1cc(C(=O)Nc2ccc(N3CCOCC3)cc2)ccc1-c1cccc(C(=O)Nc2ccc3cn[nH]c3c2)c1 [Example 63, 2′-Methyl-biphenyl-3,4′-dicarboxylic acid 3-[(1H-indazol-6-yl)-amide] 4′-[(4-morpholin-4-yl-phenyl)-amide]] | < 1000 nM | * (key: * < 50 μM; ** > 50 μM) | – | –
Cc1cc(C(=O)Nc2ccc(N3CCOCC3)cc2)ccc1-c1cccc(C(=O)Nc2cccc(Br)c2)c1 [Example 64, 2′-Methyl-biphenyl-3,4′-dicarboxylic acid 3-[(3-bromo-phenyl)-amide] 4′-[(4-morpholin-4-yl-phenyl)-amide]] | < 1000 nM | * (key: * < 50 μM; ** > 50 μM) | – | –
Cc1cc(C(=O)Nc2ccc(N3CCOCC3)cc2)ccc1-c1cccc(C(=O)Nc2ccc(-c3ccno3)cc2)c1 [Example 65, 2′-Methyl-biphenyl-3,4′-dicarboxylic acid 3-[(4-isoxazol-5-yl-phenyl)-amide] 4′-[(4-morpholin-4-yl-phenyl)-amide]] | < 1000 nM | * (key: * < 50 μM; ** > 50 μM) | – | –
Cc1cc(C(=O)Nc2ccc(N3CCOCC3)cc2)ccc1-c1cccc(C(=O)NCc2cccc(Cl)c2)c1 [Example 66, 2′-Methyl-biphenyl-3,4′-dicarboxylic acid 3-(3-chloro-benzylamide) 4′-[(4-morpholin-4-yl-phenyl)-amide]] | 1000 to 5000 nM | * (key: * < 50 μM; ** > 50 μM) | – | –
Cc1ccc(C(=O)Nc2ccc(N3CCOCC3)cc2)cc1-c1ccc(C(=O)Nc2ccc3cn[nH]c3c2)cc1 [Example 67, 6-Methyl-biphenyl-3,4′-dicarboxylic acid 4′-[(1H-indazol-6-yl)-amide] 3-[(4-morpholin-4-yl-phenyl)-amide]] | < 1000 nM | ** (key: * < 50 μM; ** > 50 μM) | – | –
Cc1ccc(NC(=O)c2ccc(N3CCOCC3)cc2)cc1-c1ccc(C(=O)Nc2cccc(OC(F)(F)F)c2)cc1 [Example 68, 2′-Methyl-5′-(4-morpholin-4-yl-benzoylamino)-biphenyl-4-carboxylic acid (3-trifluoromethoxy-phenyl)-amide] | – | – | 1000 to 5000 nM | ** (** > 50 μM)
Cc1ccc(C(=O)Nc2ccc(N3CCOCC3)cc2)cc1-c1ccc(C(=O)Nc2cccc(CN3CCSCC3)c2)cc1 [Example 69, 6-Methyl-biphenyl-3,4′-dicarboxylic acid 3-[(4-morpholin-4-yl-phenyl)-amide] 4′-[(3-thiomorpholin-4-ylmethyl-phenyl)-amide]] | < 1000 nM | * (key: * < 50 μM; ** > 50 μM) | – | –
Cc1ccc(C(=O)Nc2ccc(N3CCOCC3)cc2)cc1-c1ccc(C(=O)Nc2ccc(C(=O)N(C)C)cc2)cc1 [Example 70, 6-Methyl-biphenyl-3,4′-dicarboxylic acid 4′-[(4-dimethylcarbamoyl-phenyl)-amide] 3-[(4-morpholin-4-yl-phenyl)-amide]] | 1000 to 5000 nM | * (key: * < 50 μM; ** > 50 μM) | – | –
CCC1(c2ccc(NC(=O)c3ccc(-c4cc(C(=O)Nc5ccc(N6CCOCC6)cc5)ccc4C)cc3)cc2)CCC(O)NC1=O (stereo not shown) [Example 71, 6-Methyl-biphenyl-3,4′-dicarboxylic acid 4′-{[4-(3-ethyl-6-hydroxy-2-oxo-piperidin-3-yl)-phenyl]-amide} 3-[(4-morpholin-4-yl-phenyl)-amide]] | < 1000 nM | * (key: * < 50 μM; ** > 50 μM) | – | –
CC(=O)Nc1cccc(NC(=O)c2ccc(-c3cc(C(=O)Nc4ccc(N5CCOCC5)cc4)ccc3C)cc2)c1 [Example 72, 6-Methyl-biphenyl-3,4′-dicarboxylic acid 4′-[(3-acetylamino-phenyl)-amide] 3-[(4-morpholin-4-yl-phenyl)-amide]] | 1000 to 5000 nM | * (key: * < 50 μM; ** > 50 μM) | – | –
Cc1ccc(C(=O)Nc2ccc(N3CCOCC3)cc2)cc1-c1ccc(C(=O)Nc2ccc(CN3CCCCC3)cc2)cc1 [Example 73, 6-Methyl-biphenyl-3,4′-dicarboxylic acid 3-[(4-morpholin-4-yl-phenyl)-amide] 4′-[(4-piperidin-1-ylmethyl-phenyl)-amide]] | < 1000 nM | * (key: * < 50 μM; ** > 50 μM) | – | –
Cc1ccc(C(=O)Nc2ccc(N3CCOCC3)cc2)cc1-c1ccc(C(=O)Nc2ccc(CN3CCOCC3)cc2)cc1 [Example 74, 6-Methyl-biphenyl-3,4′-dicarboxylic acid 4′-[(4-morpholin-4-ylmethyl-phenyl)-amide] 3-[(4-morpholin-4-yl-phenyl)-amide]] | 1000 to 5000 nM | * (key: * < 50 μM; ** > 50 μM) | – | –
Cc1ccc(C(=O)Nc2ccc(N3CCOCC3)cc2)cc1-c1ccc(C(=O)Nc2ccc(CN3CCCC3)cc2)cc1 [Example 75, 6-Methyl-biphenyl-3,4′-dicarboxylic acid 3-[(4-morpholin-4-yl-phenyl)-amide] 4′-[(4-pyrrolidin-1-ylmethyl-phenyl)-amide]] | > 5000 nM | * (key: * < 50 μM; ** > 50 μM) | – | –
CCCN(C)Cc1ccc(NC(=O)c2ccc(-c3cc(C(=O)Nc4ccc(N5CCOCC5)cc4)ccc3C)cc2)cc1 [Example 76, 6-Methyl-biphenyl-3,4′-dicarboxylic acid 4′-({4-[(methyl-propyl-amino)-methyl]-phenyl}-amide) 3-[(4-morpholin-4-yl-phenyl)-amide]] | 1000 to 5000 nM | * (key: * < 50 μM; ** > 50 μM) | – | –
CC(=O)Nc1cc(NC(=O)c2ccc(-c3cc(C(=O)Nc4ccc(N5CCOCC5)cc4)ccc3C)cc2)ccc1C [Example 77, 6-Methyl-biphenyl-3,4′-dicarboxylic acid 4′-[(3-acetylamino-4-methyl-phenyl)-amide] 3-[(4-morpholin-4-yl-phenyl)-amide]] | 1000 to 5000 nM | * (key: * < 50 μM; ** > 50 μM) | – | –
Cc1ccc(C(=O)Nc2ccc(N3CCOCC3)cc2)cc1-c1ccc(C(=O)Nc2cccc(NS(C)(=O)=O)c2)cc1 [Example 78, 6-Methyl-biphenyl-3,4′-dicarboxylic acid 4′-[(3-methanesulfonylamino-phenyl)-amide] 3-[(4-morpholin-4-yl-phenyl)-amide]] | 1000 to 5000 nM | * (key: * < 50 μM; ** > 50 μM) | – | –
Cc1ccc(C(=O)Nc2ccc(N3CCOCC3)cc2)cc1-c1ccc(C(=O)Nc2ccc3[nH]c(=O)[nH]c3c2)cc1 [Example 79, 6-Methyl-biphenyl-3,4′-dicarboxylic acid 3-[(4-morpholin-4-yl-phenyl)-amide] 4′-[(2-oxo-2,3-dihydro-1H-benzoimidazol-5-yl)-amide]] | > 5000 nM | * (key: * < 50 μM; ** > 50 μM) | – | –
Cc1ccc(C(=O)Nc2ccc(N3CCOCC3)cc2)cc1-c1ccc(C(=O)Nc2ccccc2CN2CCCCC2)cc1 [Example 80, 6-Methyl-biphenyl-3,4′-dicarboxylic acid 3-[(4-morpholin-4-yl-phenyl)-amide] 4′-[(2-piperidin-1-ylmethyl-phenyl)-amide]] | 1000 to 5000 nM | * (key: * < 50 μM; ** > 50 μM) | – | –
Cc1ccc(C(=O)Nc2ccc(N3CCOCC3)cc2)cc1-c1ccc(C(=O)Nc2ccc(CO)cc2)cc1 [Example 81, 6-Methyl-biphenyl-3,4′-dicarboxylic acid 4′-[(4-hydroxymethyl-phenyl)-amide] 3-[(4-morpholin-4-yl-phenyl)-amide]] | 1000 to 5000 nM | * (key: * < 50 μM; ** > 50 μM) | – | –
Cc1ccc(C(=O)Nc2ccc(N3CCOCC3)cc2)cc1-c1ccc(C(=O)Nc2ccc(CN3CCNCC3)cc2)cc1 [Example 82, 6-Methyl-biphenyl-3,4′-dicarboxylic acid 3-[(4-morpholin-4-yl-phenyl)-amide] 4′-[(4-piperazin-1-ylmethyl-phenyl)-amide]] | 1000 to 5000 nM | * (key: * < 50 μM; ** > 50 μM) | – | –
Cc1ccc(C(=O)Nc2ccc(N3CCOCC3)cc2)cc1-c1ccc(C(=O)NCc2cccc(Cl)c2)cc1 [Example 83, 6-Methyl-biphenyl-3,4′-dicarboxylic acid 4′-(3-chloro-benzylamide) 3-[(4-morpholin-4-yl-phenyl)-amide]] | 1000 to 5000 nM | ** (key: * < 50 μM; ** > 50 μM) | – | –
CCOC(=O)c1ccc(-c2cc(C(=O)Nc3ccc(N4CCOCC4)cc3)ccc2C)cc1 [Example 84, 2′-Methyl-5′-(4-morpholin-4-yl-phenylcarbamoyl)-biphenyl-4-carboxylic acid ethyl ester] | – | – | > 5000 nM | ** (** > 50 μM)
Cc1ccc(NC(=O)c2ccc(N3CCOCC3)cc2)cc1-c1ccc(C(=O)Nc2ccc3[nH]c(C(F)(F)F)nc3c2)cc1 [Example 85, 2′-Methyl-5′-(4-morpholin-4-yl-benzoylamino)-biphenyl-4-carboxylic acid (2-trifluoromethyl-1H-benzoimidazol-5-yl)-amide] | – | – | 1000 to 5000 nM | ** (** > 50 μM)
CC(=O)Nc1ccc(NC(=O)c2ccc(-c3cc(NC(=O)c4ccc(N5CCOCC5)cc4)ccc3C)cc2)cc1 [Example 86, 2′-Methyl-5′-(4-morpholin-4-yl-benzoylamino)-biphenyl-4-carboxylic acid (4-acetylamino-phenyl)-amide] | – | – | 1000 to 5000 nM | ** (** > 50 μM)
